Patent US8791143B2, “Anthranilic diamide derivatives having cyclic side-chains” (priority 2010, dated 2014)
Where two headings read alike, the source gives them in different places.

Assays:
[1] = test system: larvae of the mustard beetle (Phaedon cochleariae); assay: Phaedon test (PHAECO spray treatment); settings: Phaedon cochleariae, 168 h, read-out: activity in % (beetle larvae killed)
[2] = test system: caterpillars of the armyworm (Spodoptera frugiperda); assay: Spodoptera frugiperda test (SPODFR spray treatment); format: in vivo; settings: Spodoptera frugiperda, 168 h, read-out: activity in % (caterpillars killed)
[3] = log P by HPLC on reversed-phase columns (EEC Directive 79/831 Annex V.A8); format: physicochemical
[4] = application rate 100 g/ha, after 7 days
[5] = reversed-phase C18 HPLC column, pH 2.7, HPLC reversed-phase C18, acidic range pH 2.7 (HCOOH), only or first value of the cell, read-out: log P

chromatographic logP [3, 5] | Compound | pest or weed control at 100 g/ha [1] | pest or weed control at 100 g/ha [2] | chromatographic logP ([3]; pH 2.7, log P) | log P (second value after the slash) ([3]; pH 2.7) | pest or weed control at 100 g/ha [2, 4]
– | Cc1cc(Cl)cc(C(=O)NC2COC2)c1NC(=O)c1cc(Cn2nnc(C(F)(F)C(F)(F)F)n2)nn1-c1ncccc1Cl [Example 9] | 100% | 100% | 3.21 | – | –
– | Cc1cc(C#N)cc(C(=O)NC2CSC2)c1NC(=O)c1cc(Cn2nnc(C(F)(F)C(F)(F)F)n2)nn1-c1ncccc1Cl [Example 11] | 100% | 100% | 3.43 | – | –
– | Cc1cc(C#N)cc(C(=O)NC2COC2)c1NC(=O)c1cc(Cn2nnnc2C(F)(F)F)nn1-c1ncccc1Cl [Example 12] | 100% | 100% | 2.17 | – | –
– | Cc1cc(C#N)cc(C(=O)NC2COC2)c1NC(=O)c1cc(Cn2nc(C(F)(F)F)nc2C(F)(F)F)nn1-c1ncccc1Cl [Example 13] | 100% | 100% | 2.95 | – | –
– | Cc1cc(Cl)cc(C(=O)NC2=NCCS2)c1NC(=O)c1cc(Cn2nnc(C(F)(F)C(F)(F)F)n2)nn1-c1ncccc1Cl [Example 47] | 100% | 100% | 3.9 | 3.58 | –
2.75 | Cc1cc(C#N)cc(C(=O)NC2CCS(=O)(=O)C2)c1NC(=O)c1cc(Cn2nnc(C(F)(F)F)n2)nn1-c1c(F)cccc1F (stereo not shown) [Example 52] | 100% | – | – | – | 100%
– | Cc1cc(Cl)cc(C(=O)NC2CCSCC2)c1NC(=O)c1cc(Cn2nnc(C(F)(F)F)n2)nn1-c1ncccc1Cl [Example 56] | 100% | 100% | 3.58 | – | –
– | Cc1cc(Cl)cc(C(=O)NCC2(C)CCCO2)c1NC(=O)c1cc(Cn2nnc(C(F)(F)F)n2)nn1-c1ncccc1Cl (stereo not shown) [Example 61] | 100% | 100% | 3.48 | – | –
4.02 | Cc1cc(C#N)cc(C(=O)NCc2cccc(S(F)(F)(F)(F)F)c2)c1NC(=O)c1cc(Cn2nnc(C(F)(F)F)n2)nn1-c1ncccc1Cl [Example 63] | 100% | – | – | – | 100%
4.01 | Cc1cc(C#N)cc(C(=O)NCc2ccc(S(F)(F)(F)(F)F)cc2)c1NC(=O)c1cc(Cn2nnc(C(F)(F)F)n2)nn1-c1ncccc1Cl [Example 64] | 100% | – | – | – | 100%
– | Cc1cc(C#N)cc(C(=O)NCc2ccc(Cl)nc2)c1NC(=O)c1cc(Cn2nnc(C(F)(F)F)n2)nn1-c1ncccc1Cl [Example 66] | 100% | 100% | 3.11 | – | –
3.91 | Cc1cc(C#N)cc(C(=O)NC(C)c2ccc(Cl)cc2)c1NC(=O)c1cc(Cn2nnc(C(F)(F)F)n2)nn1-c1ncccc1Cl (stereo not shown) [Example 67] | 100% | – | – | – | 100%
3.69 | Cc1cc(C#N)cc(C(=O)NCc2cccc(S(F)(F)(F)(F)F)c2)c1NC(=O)c1cc(Cn2nnnc2C(F)(F)F)nn1-c1ncccc1Cl [Example 68] | 100% | – | – | – | 100%
3.77 | Cc1cc(C#N)cc(C(=O)NCc2ccccc2)c1NC(=O)c1cc(Cn2nnc(C(F)(F)F)n2)nn1-c1ccccc1Cl [Example 71] | 100% | – | – | – | 100%
– | Cc1cc(Cl)cc(C(=O)Nc2ccc(Cl)cc2)c1NC(=O)c1cc(Cn2nnc(C(F)(F)F)n2)nn1-c1ncccc1Cl [Example 73] | 100% | 100% | 4.17 | – | –
3.68 | Cc1cc(C#N)cc(C(=O)NC(C)c2ccccc2)c1NC(=O)c1cc(Cn2nnc(C(F)(F)F)n2)nn1-c1ccccc1Cl (stereo not shown) [Example 74] | 100% | – | – | – | 100%
3.76 | Cc1cc(C#N)cc(C(=O)NCc2cccc(Cl)c2)c1NC(=O)c1cc(Cn2nnc(C(F)(F)F)n2)nn1-c1ccccc1Cl [Example 75] | 100% | – | – | – | 100%
3.77 | COc1ccc(CNC(=O)c2cc(C#N)cc(C)c2NC(=O)c2cc(Cn3nnc(C(F)(F)F)n3)nn2-c2ccccc2Cl)cc1 [Example 76] | 100% | – | – | – | 100%
4.42 | Cc1cc(C#N)cc(C(=O)NCc2ccc(Cl)cc2Cl)c1NC(=O)c1cc(Cn2nnc(C(F)(F)F)n2)nn1-c1ccccc1Cl [Example 77] | 100% | – | – | – | 100%
– | Cc1cc(Cl)cc(C(=O)NCc2ccccc2)c1NC(=O)c1cc(Cn2nnc(C(F)(F)F)n2)nn1-c1ncccc1Cl [Example 81] | 100% | 100% | 3.77 | – | –

chromatographic logP [3, 5] | Compound | pest or weed control at 100 g/ha [1] | pest or weed control at 100 g/ha [2] | chromatographic logP ([3]; pH 2.7, log P) | log P (second value after the slash) ([3]; pH 2.7) | pest or weed control at 100 g/ha [2, 4]
– | Cc1cc(Cl)cc(C(=O)NCc2ccccc2Cl)c1NC(=O)c1cc(Cn2nnc(C(F)(F)F)n2)nn1-c1ncccc1Cl [Example 82] | 100% | 100% | 4.06 | – | –
– | Cc1cc(Cl)cc(C(=O)NCc2ccccc2F)c1NC(=O)c1cc(Cn2nnc(C(F)(F)F)n2)nn1-c1ncccc1Cl [Example 83] | 100% | 100% | 3.77 | – | –
– | Cc1cc(Cl)cc(C(=O)NC(C)c2ccccc2)c1NC(=O)c1cc(Cn2nnc(C(F)(F)F)n2)nn1-c1ncccc1Cl (stereo not shown) [Example 84] | 100% | 100% | 3.92 | – | –
– | Cc1cc(Cl)cc(C(=O)N[C@H](C)c2ccccc2)c1NC(=O)c1cc(Cn2nnc(C(F)(F)F)n2)nn1-c1ncccc1Cl [Example 85] | 100% | 100% | 3.92 | – | –
– | Cc1cccc(CNC(=O)c2cc(Cl)cc(C)c2NC(=O)c2cc(Cn3nnc(C(F)(F)F)n3)nn2-c2ncccc2Cl)c1 [Example 89] | 100% | 100% | 4.08 | – | –
4.85 | Cc1cc(Cl)cc(C(=O)NCc2ccc(C(C)(C)C)cc2)c1NC(=O)c1cc(Cn2nnc(C(F)(F)F)n2)nn1-c1ncccc1Cl [Example 91] | 100% | – | – | – | 100%
– | Cc1cc(Cl)cc(C(=O)NCc2ccc(Cl)cc2Cl)c1NC(=O)c1cc(Cn2nnc(C(F)(F)F)n2)nn1-c1ncccc1Cl [Example 92] | 100% | 100% | 4.41 | – | –
– | Cc1cc(Cl)cc(C(=O)NCc2ccc(Cl)c(Cl)c2)c1NC(=O)c1cc(Cn2nnc(C(F)(F)F)n2)nn1-c1ncccc1Cl [Example 93] | 100% | 100% | 4.37 | – | –
– | Cc1cc(Cl)cc(C(=O)NCc2cc(Cl)cc(Cl)c2)c1NC(=O)c1cc(Cn2nnc(C(F)(F)F)n2)nn1-c1ncccc1Cl [Example 94] | 100% | 100% | 4.49 | – | –
4.23 | Cc1cc(Cl)cc(C(=O)NCc2cccc(C(F)(F)F)c2)c1NC(=O)c1cc(Cn2nnc(C(F)(F)F)n2)nn1-c1ncccc1Cl [Example 95] | 100% | – | – | – | 100%
4.21 | Cc1cc(Cl)cc(C(=O)NCc2ccc(C(F)(F)F)cc2)c1NC(=O)c1cc(Cn2nnc(C(F)(F)F)n2)nn1-c1ncccc1Cl [Example 96] | 100% | – | – | – | 100%
– | Cc1cc(Cl)cc(C(=O)NCc2cccc(F)c2)c1NC(=O)c1cc(Cn2nnc(C(F)(F)F)n2)nn1-c1ncccc1Cl [Example 98] | 100% | 100% | 3.79 | – | –
– | Cc1cc(Cl)cc(C(=O)NCc2ccc(F)cc2)c1NC(=O)c1cc(Cn2nnc(C(F)(F)F)n2)nn1-c1ncccc1Cl [Example 99] | 100% | 100% | 3.81 | – | –
– | COc1ccccc1CNC(=O)c1cc(Cl)cc(C)c1NC(=O)c1cc(Cn2nnc(C(F)(F)F)n2)nn1-c1ncccc1Cl [Example 100] | 100% | 100% | 3.94 | – | –
– | COc1cccc(CNC(=O)c2cc(Cl)cc(C)c2NC(=O)c2cc(Cn3nnc(C(F)(F)F)n3)nn2-c2ncccc2Cl)c1 [Example 101] | 100% | 100% | 3.81 | – | –
– | COc1ccc(CNC(=O)c2cc(Cl)cc(C)c2NC(=O)c2cc(Cn3nnc(C(F)(F)F)n3)nn2-c2ncccc2Cl)cc1 [Example 102] | 100% | 100% | 3.76 | – | –
4.34 | Cc1cc(Cl)cc(C(=O)NCc2ccccc2OC(F)(F)F)c1NC(=O)c1cc(Cn2nnc(C(F)(F)F)n2)nn1-c1ncccc1Cl [Example 103] | 100% | – | – | – | 100%
4.36 | Cc1cc(Cl)cc(C(=O)NCc2cccc(OC(F)(F)F)c2)c1NC(=O)c1cc(Cn2nnc(C(F)(F)F)n2)nn1-c1ncccc1Cl [Example 104] | 100% | – | – | – | 100%
– | Cc1cc(Cl)cc(C(=O)NCc2cccc(Cl)c2Cl)c1NC(=O)c1cc(Cn2nnc(C(F)(F)F)n2)nn1-c1ncccc1Cl [Example 105] | 100% | 100% | 4.37 | – | –
– | Cc1cc(Cl)cc(C(=O)NCc2cc(Cl)ccc2Cl)c1NC(=O)c1cc(Cn2nnc(C(F)(F)F)n2)nn1-c1ncccc1Cl [Example 106] | 100% | 100% | 4.39 | – | –
